Earlier results in patent US11612614B2, “Isomorphs of Remdesivir and methods for synthesis of same” (Anzalp Pharmasolutions Pvt. Ltd., priority 2020, dated 2023).
“Also recorded” adds a separate entry of the source.

Columns and labels:
[1] = not given; remark: listed apart in the source

For `CCC(CC)COC(=O)[C@H](C)N[P@](=O)(OC[C@H]1O[C@@](C#N)(c2ccc3c(N)ncnn23)[C@H](O)[C@@H]1O)Oc1ccccc1` [Remdesivir, 2-ethylbutyl (2S)-2-[[[(2R,3S,4R,5R)-5-(4-aminopyrrolo[2,1-f][1,2,4]triazin-7-yl)-5-cyano-3,4-dihydroxyoxolan-2-yl]methoxy-phenoxyphosphoryl]amino]propanoate], the solubility in ethanol (ethanol) is given as “soluble”, the solubility in water (water) is given as “practically insoluble; also recorded: relatively insoluble” and the “chemical stability in aqueous media” value [1] is given as “chemically unstable”.
